The results in this text go back to PubChem BioAssay AID248 (DTP/NCI, 2004).

Values joined by “and” are separate entries in the source; they are usually repeats but may differ in a detail not shown here. Equal entries are not always repeated. Inconclusive results and toxic doses are left out.

For the assay, the system named is L1210 leukemia ip in BDF1 mice, survival T/C. Briefly: NCI In Vivo Anticancer Drug Screen. Data for tumor model L1210 Leukemia (intraperitoneal) in B6D2F1 (BDF1) mice. Particulars: endpoint: mean survival time, higher = longer survival. A digest of the protocol:
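Transplanted-tumor mice were given test agent; controls received vehicle only. Survival readings from the two groups were divided (treated over control).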

Setting [1] is: dose: 100.0 mg/kg/injection, schedule: Q04DX003 (ip), vehicle: saline with Tween-80.
Setting [2] is: dose: 200.0 mg/kg/injection, schedule: Q04DX003 (ip), vehicle: saline with Tween-80.
Setting [3] is: dose: 100.0 mg/kg/injection, schedule: Q01DX001 (ip), vehicle: Klucel (hydroxypropylcellulose) (HPC).
Where [4] appears, read: dose: 200.0 mg/kg/injection, schedule: Q01DX001 (ip), vehicle: Klucel (hydroxypropylcellulose) (HPC).

Turning to `CCOc1ccc(Nc2ncnc3nc[nH]c23)cc1CN(CCCl)CCCl`, the T/C is, setting by setting: (dose: 1.2 mg/kg/injection, schedule: Q01DX Z (ip), vehicle: carboxymethylcellulose (CMC)) 98 % of control; (dose: 1.3 mg/kg/injection, schedule: Q01DX Z (ip), vehicle: carboxymethylcellulose (CMC)) 114 % of control; (dose: 1.56 mg/kg/injection, schedule: Q04DX003 (ip), vehicle: saline) 113 % of control; (dose: 1.9 mg/kg/injection, schedule: Q01DX Z (ip), vehicle: carboxymethylcellulose (CMC)) 117 % of control; (dose: 2.5 mg/kg/injection, schedule: Q01DX Z (ip), vehicle: carboxymethylcellulose (CMC)) 103 % of control; (dose: 3.3 mg/kg/injection, schedule: Q04DX003 (ip), vehicle: saline) 111 % of control. The T/C is, setting by setting: (dose: 4.2 mg/kg/injection, schedule: Q01DX Z (ip), vehicle: carboxymethylcellulose (CMC)) 116 % of control; (dose: 5.0 mg/kg/injection, schedule: Q01DX001 (ip), vehicle: carboxymethylcellulose (CMC)) 104 % of control; (dose: 5.0 mg/kg/injection, schedule: Q01DX Z (ip), vehicle: carboxymethylcellulose (CMC)) 116 % of control; (dose: 5.0 mg/kg/injection, schedule: Q04DX003 (ip), vehicle: saline) 122 % of control; (dose: 7.5 mg/kg/injection, schedule: Q04DX003 (ip), vehicle: saline) 121 % of control; (dose: 10.0 mg/kg/injection, schedule: Q01DX001 (ip), vehicle: carboxymethylcellulose (CMC)) 102 % of control. Also, the T/C is, setting by setting: (dose: 10.0 mg/kg/injection, schedule: Q01DX Z (ip), vehicle: carboxymethylcellulose (CMC)) 110 % of control; (dose: 20.0 mg/kg/injection, schedule: Q01DX001 (ip), vehicle: carboxymethylcellulose (CMC)) 109 % of control; (dose: 40.0 mg/kg/injection, schedule: Q01DX001 (ip), vehicle: carboxymethylcellulose (CMC)) 102 % of control.

For `Cc1ccc(S(=O)(=O)OCCC2=CCC3CC2C3(C)C)cc1` (stereo unspecified), the T/C by setting is: (dose: 100.0 mg/kg/injection, schedule: Q04DX002 (ip), vehicle: saline) 103 % of control; (dose: 200.0 mg/kg/injection, schedule: Q04DX002 (ip), vehicle: saline) 95 % of control; (dose: 400.0 mg/kg/injection, schedule: Q04DX002 (ip), vehicle: saline) 95 % of control.

`Cc1ccnc(NC(=O)Nc2ccc(F)c([N+](=O)[O-])c2)c1`: the T/C (dose: 100.0 mg/kg/injection, schedule: Q01DX009 (ip), vehicle: Klucel (hydroxypropylcellulose) (HPC)) was 91 % of control; the T/C (dose: 200.0 mg/kg/injection, schedule: Q01DX009 (ip), vehicle: Klucel (hydroxypropylcellulose) (HPC)) is 96 % of control; the T/C (dose: 400.0 mg/kg/injection, schedule: Q01DX009 (ip), vehicle: Klucel (hydroxypropylcellulose) (HPC)) was 104 % of control.

Regarding `O=C(Nc1ccc(C2=NCCN2)cc1)Nc1cccc(C(=O)Nc2ccc(C3=NCCN3)cc2)c1`, the T/C (dose: 1.0 mg/kg/injection, schedule: Q01DX Z (ip), vehicle: carboxymethylcellulose (CMC)) was 106 % of control; the T/C (dose: 2.0 mg/kg/injection, schedule: Q01DX Z (ip), vehicle: carboxymethylcellulose (CMC)) was 117 % of control; the T/C (dose: 3.75 mg/kg/injection, schedule: Q01DX Z (ip), vehicle: saline) is 97 % of control; the T/C (dose: 4.0 mg/kg/injection, schedule: Q01DX Z (ip), vehicle: carboxymethylcellulose (CMC)) is 122 % of control; the T/C (dose: 7.5 mg/kg/injection, schedule: Q01DX Z (ip), vehicle: saline) was 100 % of control; the T/C (dose: 8.0 mg/kg/injection, schedule: Q01DX Z (ip), vehicle: carboxymethylcellulose (CMC)) was 150 % of control and 158 % of control. Moreover, the T/C (dose: 15.0 mg/kg/injection, schedule: Q01DX Z (ip), vehicle: saline) was 110 % of control; the T/C (dose: 16.0 mg/kg/injection, schedule: Q01DX Z (ip), vehicle: carboxymethylcellulose (CMC)) is 225 % of control; the T/C (dose: 30.0 mg/kg/injection, schedule: Q01DX Z (ip), vehicle: carboxymethylcellulose (CMC)) is 154 % of control; the T/C (dose: 31.0 mg/kg/injection, schedule: Q01DX Z (ip), vehicle: carboxymethylcellulose (CMC)) is 250 % of control; the T/C (dose: 62.0 mg/kg/injection, schedule: Q01DX Z (ip), vehicle: carboxymethylcellulose (CMC)) was 207 % of control and 320 % of control; the T/C (dose: 120.0 mg/kg/injection, schedule: Q01DX Z (ip), vehicle: carboxymethylcellulose (CMC)) was 198 % of control. In addition, the T/C reads like this: (dose: 120.0 mg/kg/injection, schedule: Q01DX Z (oral), vehicle: saline) 101 % of control; (dose: 125.0 mg/kg/injection, schedule: Q01DX Z (ip), vehicle: carboxymethylcellulose (CMC)) 200 % of control; (dose: 240.0 mg/kg/injection, schedule: Q01DX Z (ip), vehicle: saline) 233 % of control; (dose: 240.0 mg/kg/injection, schedule: Q01DX Z (oral), vehicle: saline) 101 % of control; (dose: 480.0 mg/kg/injection, schedule: Q01DX Z (oral), vehicle: saline) 104 % of control.

On to `CCC(C(OC(C)=O)C(C)C)[N+](=O)[O-]` (stereo unspecified), for which the T/C (dose: 9.38 mg/kg/injection, schedule: Q01DX001 (ip), vehicle: other) is 104 % of control and the T/C (dose: 18.75 mg/kg/injection, schedule: Q01DX001 (ip), vehicle: other) was 105 % of control.

For `O=[N+]([O-])c1ccccc1N=Nc1c(O)[nH]c2ccc(F)cc12`, the T/C reads like this: (dose: 75.0 mg/kg/injection, schedule: Q01DX001 (ip), vehicle: acetone) 96 % of control; (dose: 150.0 mg/kg/injection, schedule: Q01DX001 (ip), vehicle: acetone) 96 % of control; (dose: 300.0 mg/kg/injection, schedule: Q01DX001 (ip), vehicle: acetone) 103 % of control.

In the case of `O=C(NCCO)Nc1cccc2ccccc12`, the T/C was 95 % of control (dose: 100.0 mg/kg/injection, schedule: Q01DX001 (ip), vehicle: saline); 95 % of control (dose: 200.0 mg/kg/injection, schedule: Q01DX001 (ip), vehicle: saline); 90 % of control (dose: 400.0 mg/kg/injection, schedule: Q01DX001 (ip), vehicle: saline).

With `O=C(O)C1CCCCC1C(=O)Nc1ccc(Cl)cc1` (stereo unspecified), the T/C is, setting by setting: (dose: 50.0 mg/kg/injection, schedule: Q01DX009 (ip), vehicle: saline with Tween-80) 88 % of control; (dose: 100.0 mg/kg/injection, schedule: Q01DX009 (ip), vehicle: saline with Tween-80) 87 % of control; under setting [1], 96 % of control; (dose: 200.0 mg/kg/injection, schedule: Q01DX009 (ip), vehicle: saline with Tween-80) 98 % of control; under setting [2], 97 % of control.

For `CC1N=C(c2ccccc2)C2(c3ccccc3)C(C)N12` (stereo unspecified), the T/C under setting [3] was 97 % of control and the T/C under setting [4] was 94 % of control.

In the case of `Nc1nc(=S)ss1`, the T/C reads like this: (dose: 100.0 mg/kg/injection, schedule: Q04DX003 (ip), vehicle: Klucel (hydroxypropylcellulose) (HPC)) 108 % of control; (dose: 200.0 mg/kg/injection, schedule: Q04DX003 (ip), vehicle: Klucel (hydroxypropylcellulose) (HPC)) 105 % of control; (dose: 400.0 mg/kg/injection, schedule: Q04DX003 (ip), vehicle: Klucel (hydroxypropylcellulose) (HPC)) 97 % of control.

Consider `CC(=O)OCC1CC2C=CC1C2` (stereo unspecified), for which the T/C was 98 % of control (dose: 222.0 mg/kg/injection, schedule: Q01DX Z (ip), vehicle: saline); 102 % of control (dose: 333.0 mg/kg/injection, schedule: Q01DX Z (ip), vehicle: saline); 104 % of control (dose: 500.0 mg/kg/injection, schedule: Q01DX Z (ip), vehicle: saline).

With `Brc1ccc(Nc2c3ccccc3nc3ccccc23)cc1`, the T/C under setting [1] is 97 % of control and the T/C under setting [2] was 103 % of control.

Consider `C=CCC(O)CCCCC` (stereo unspecified), for which the T/C runs as follows: (dose: 50.0 mg/kg/injection, schedule: Q01DX001 (ip), vehicle: carboxymethylcellulose (CMC)) 101 % of control; (dose: 100.0 mg/kg/injection, schedule: Q01DX001 (ip), vehicle: carboxymethylcellulose (CMC)) 92 % of control; (dose: 200.0 mg/kg/injection, schedule: Q01DX001 (ip), vehicle: carboxymethylcellulose (CMC)) 97 % of control; (dose: 400.0 mg/kg/injection, schedule: Q01DX001 (ip), vehicle: carboxymethylcellulose (CMC)) 106 % of control.

`Cc1nnc2nc3c(nn12)c1ccccc1n3C`: the T/C was 100 % of control (dose: 6.25 mg/kg/injection, schedule: Q04DX002 (ip), vehicle: saline); 103 % of control (dose: 12.5 mg/kg/injection, schedule: Q04DX002 (ip), vehicle: saline); 96 % of control (dose: 25.0 mg/kg/injection, schedule: Q04DX002 (ip), vehicle: saline).

For the compound `COc1c(OC)c(C(C)C)c2c(OC(C)=O)c(C)c(-c3c(C)c(OC(C)=O)c4c(C(C)C)c(OC)c(OC)c5c4c3OC5=O)c3c2c1C(=O)O3`, the T/C by setting is: (dose: 50.0 mg/kg/injection, schedule: Q01DX001 (ip), vehicle: Klucel (hydroxypropylcellulose) (HPC)) 100 % of control; under setting [3], 93 % of control; under setting [4], 98 % of control.
